Assay results: US20140336187A1, “METHODS FOR TREATING LEISHMANIASIS” (HOWARD UNIVERSITY, priority 2011, published 2014)
Several values for one entry are separate records, joined by “and”; a condition that tells them apart may be missing. Identical values can stand only once.

How the values were obtained:
[1] = tested on: L. donovani promastigotes; assay: Dose and time-dependent inhibitory effect on L. donovani promastigotes (2, 4, 6, 24 hours exposure); format: cell-based, Leishmania donovani
Method: (§1) The Leishmanicidal properties of fifteen naphthoquinone compounds (FIG. 1) on L. donovani promastigotes proliferation were assessed by the resazurin cell viability assay. Promastigotes from axenic culture were harvested during the exponential phase of growth (at least 5-day old culture), incubated at a concentration of 2×10^5 cells/200 μl with and without dilutions of compounds in 96-well microtitre plates. Dilutions of compounds covering 0.03 μM to 44 μM were prepared. […] 20 μl Alamar Blue (12.5 mg resazurin dissolved in 100 ml distilled water (Sigma #R7017)) (Mikes and Steverding, 2000) were added to each well and plates were incubated for another 2 hrs. […] Decrease in fluorescence (inhibition), were expressed as percentage of the fluorescence of control cultures and were plotted against the concentrations of compounds. The IC50 values were calculated from the sigmoidal inhibition curves.
A time and dose-dependent inhibitory effect of all 15 imido-substituted naphthoquinone compounds was assessed on their activity on promastigotes of L. donovani. Promastigotes were plated in 96-well plates and incubated in different concentrations of each compound (0.03 to 44 μM), incubated for two hours and viabilities assayed by the resazurin assay. A two hour exposure was assessed by calculation of IC50 values of each compound. Values are means±S.E. (Standard Error).
(§2) A time and dose-dependent inhibitory effect of all 15 imido-substituted naphthoquinone compounds was assessed on their activity on promastigotes of L. donovani. Promastigotes were plated in 96-well plates and incubated in different concentrations of each compound (0.03 to 44 μM), incubated for four hours and cell viabilities assayed by the resazurin assay. A four hour exposure was assessed by calculation of IC50 values of each compound. Values are means±S.E. (Standard Error).
Promastigotes were plated in 96-well plates and incubated in different concentrations of each compound (0.03 to 44 μM), incubated for six hours and cell viabilities assayed by the resazurin assay. A six hour exposure was assessed by calculation of IC50 values of each compound. Values are means±S.E. (Standard error).
as §2, with “incubated for twenty four hours” for “incubated for four hours”, “assay. A twenty four hour” for “assay. A four hour”

[2] = tested on: L. donovani promastigotes; assay: Antileishmanial activity on L. donovani promastigotes (resazurin cell viability assay); format: cell-based, Leishmania donovani; conditions: for IC50: resazurin assay, 0.03 to 44 μM, means ± S.E. of three experiments; for SI Values Promastigotes: SI = IC50 (mouse fibroblast) ÷ IC50 (promastigotes)
Method: Approximately 5×10^5 promastigotes/ml of L. donovani Khartum strain were inoculated into Yeager's Liver infusion tryptose (YLIT) medium or Brain Heart Infusion (BHI) broth (Difco), supplemented with glucose (2.5 mg/ml), 50 U/ml Pen-Strep and 0.005 mM Hemin at 25-26° C. and subcultured bi-weekly, Mikus et al., Parasitol Int., 48(3):265-9 (2000) (Mikus and Steverding, 2000).
as §1

[3] = In vivo cytotoxic assessment: serum AST and ALT in VL BALB/c mice; conditions: compared with uninfected negative controls
Method: Serum was collected from infected, treated and non-treated mice 14 days post infection and 7 days from the start of treatment for the determination of alanine amino transferase (ALT) and aspartate amino transferase (AST) activities. Assays were done in 96 well microtiter plates and samples and standards were run in duplicates or triplicates. For ALT, 2 μl of serum from infected treated and untreated samples were incubated with 10 μl of ALT substrate solution (1.78 g DL-alanine and 30 mg α-keto glutarate in 20 ml of phosphate buffer containing 1.25 ml of 0.4 M NaOH. Volume made up to 100 ml with buffer, pH 7.4. 1 ml of chloroform as preservative. Stable for 2 months at 2-8° C.), mixed and incubated at 37° C. for 30 minutes. 10 μl of dinitrophenolhydrazine (2,4 DNPH) was added. Blanks (ddH2O) and negative (not infected) samples were then added. Samples were mixed and incubated at room temperature for 20 minutes. 100 μl of 0.4 M NaOH was added, mixed and incubated at room temperature for 5 min. Plates were read at 490 nm. For AST, 2 μl of test and positive (infected, treated and untreated) samples were incubated with 10 μl of AST substrate solution (2.66 g DL-aspartic acid and 30 mg α-keto glutarate in 20.5 ml of 1 M NaOH pH 7.4, volume made up to 100 ml with phosphate buffer. 1 ml of chloroform was added as preservative. This was stable for 2 months at 2-8° C.) and incubated at 37° C. for 1 hr. 10 μl of 2,4 DNPH added and mixed. 2 μl of negative controls (not infected) and blanks (ddH2O) added and mixed and then incubated at room temperature for 20 min. 100 μl of 0.4 M NaOH was added, mixed and incubated at room temperature for 5 min and read at 490 nm. The enzyme activity was determined from the standard curve drawn using sodium pyruvate as standard solution (2 mM/ml pyruvate). Enzyme activities were expressed as units/ml. Reference ranges by this method are: AST; 0.096-3.8 U/ml and ALT; 0.112-3.0 U/ml. (Mallick et al., 2003; Reitman and Frankel, 1957).
In order to assess in vivo cytotoxicity of four naphthoquinone compounds (IMDNQ4, IMD8, IMDNQ 10, and IMDNQ 15), serum aspartate aminotransferase (AST), and alanine aminotransferase (ALT) levels were analyzed and compared to those in untreated controls. The assay range for AST is 0.096-3.8 U/ml (mean assay range is 1.95 U/ml) and for ALT assay, 0.112-3.0 U/ml (mean assay range is 1.56 U/ml). The results are expressed as percent increase or decrease in AST or ALT levels.

[4] = tested on: NIH 3T3 BALB/c mouse fibroblast cell line; assay: Cytotoxic assessment on NIH 3T3 BALB/c mouse fibroblasts (resazurin assay); conditions: for cytotoxicity compared with Amphotericin B: Balb/C 3T3 mouse fibroblast cell line, FIG. 2; for IC50: read-out: IC50 (μM) Fibroblasts, NIH 3T3 BALB/c mouse fibroblasts, 48 hrs, resazurin assay, means ± S.E.
Method: Fibroblasts cells (4×10^4 cells/nil and adding 100 μl per well) were incubated with different concentrations of the naphthoquinone compounds (FIGS. 1) (3, 7, 13, 29, 33, and 44 μM) for 48 hrs after which viability of live fibroblast cells was determined by the Resazurin Method using a microplate reader (Bio-Tek Instruments EL311).
NIH 3T3 mouse fibroblasts were maintained in Roswell Park Memorial Institute (RPMI) medium supplemented with 10% Fetal calf serum, 50 units/ml penicillin, 50 units/ml streptomycin B in a humidified incubator at 37° C. in the presence of 5% CO2 (Scala et al., 2010).
Assays were performed to assess the cytotoxicity of these compounds in 96-well microtiter plates, with each well containing 100 μl of RPMI medium supplemented with 10% bovine calf scrum with 50 U/ml Pen-Strep. The cells were plated at a concentration of 4×10^3 cells/well (4×10^4 cells/ml). Fibroblast cells were then incubated with compounds for 48 hrs and inspected under an inverted microscope to assure growth of the controls and sterile conditions. 10 μl of resazurin solution (12.5 mg resazurin dissolved in 100 nil distilled water) were added to each well and the plates were incubated for another 2 hrs. The plates were read with a microplate reader at 570 nm. Experiments were done at least 3 times in triplicates (Scala et al., 2010).
Cell viability was determined using Resazurin Assay. The IC50 values were calculated and expressed as means±S.E (standard error).

[5] = Leishmania donovani, 2 h, read-out: Antileishmanial Activity IC50 (μM) 2 hours
[6] = Leishmania donovani, 4 h, read-out: Antileishmanial Activity IC50 (μM) 4 hours
[7] = Leishmania donovani, 6 h, read-out: Antileishmanial Activity IC50 (μM) 6 hours
[8] = Leishmania donovani, 24 h, read-out: Antileishmanial Activity IC50 (μM) 24 hours
[9] = Leishmania donovani, read-out: IC50 (μM) Promastigotes, L. donovani promastigotes

SMILES | IC50 [1, 5] | IC50 [1, 6] | IC50 [1, 7] | IC50 [1, 8] | IC50 [2, 9] | SI Values Promastigotes [2] | IC50 ([2]; read-out: IC50 (μM) Promastigotes, L. donovani promastigotes) | Serum ALT Increase (%) ([3]; 5 mg/kg) | Serum AST Increase (%) ([3]; 5 mg/kg) | Serum ALT Increase (%) ([3]; 20 mg/kg) | Serum AST Increase (%) ([3]; 20 mg/kg) | Serum ALT Increase (%) ([3]; 50 mg/kg) | Serum AST Increase (%) ([3]; 50 mg/kg) | cytotoxicity compared with Amphotericin B [4] | IC50 [4] | melting point | IC50 ([1]; promastigotes, 6 hours exposure, means ± S.E., read-out: Antileishmanial Activity IC50 (μM) 6 hours) | IC50 ([1]; promastigotes, 24 hours exposure, means ± S.E., read-out: Antileishmanial Activity IC50 (μM) 24 hours) | IC50 ([1]; read-out: Antileishmanial Activity IC50 (μM) 2 hours, promastigotes, 2 hours exposure, means ± S.E.) | IC50 ([1]; read-out: Antileishmanial Activity IC50 (μM) 4 hours, promastigotes, 4 hours exposure, means ± S.E.)
NC1=C(Br)C(=O)c2ccccc2C1=O [IMD8, 2-Amino-3-bromo-1,4-naphthoquinone] | 0.021 ± 0.001 µM | 64.2 ± 11.8 µM | 23100 µM | 12 ± 0.8 µM | 4.3 µM | 3301.71±321.1 and 3301.71 | 4.4 ± 0.4 µM | 100% | 82.69% | 100% | 87.48% and 85.17% | 100% | 85.65% and 82.69% | far less cytotoxic than Amphotericin B |  |  |  |  |  | 
CCCC(=O)N(C(=O)CCC)C1=C(Cl)C(=O)c2ccccc2C1=O [IMDNQ15] | 8.6 ± 0.01 µM |  | 116.35 ± 0.07 µM | 3.96 µM |  | 61250.00±438 and 61250.00 |  | 100% | 87.95% | 100% | 90.34% | 100% | 91.91% |  | 2.94 µM |  |  |  |  | 
O=C1C(Cl)=C(N(C(=O)c2cccc(Cl)c2)C(=O)c2cccc(Cl)c2)C(=O)c2ccccc21 [IMDNQ4, 3-Chloro-N-(3-chlorobenzoyl)-N-(3-chloro-1,4-dioxo-1,4-dihydronaphthalen-2-yl)-benzamide] | 3.52 ± 3.6 µM | 21.5 ± 9.6 µM | 4.11 ± 6.3 µM | 3.96 ± 1.3 µM | 6.81 µM | 24.65±12.51 and 24.65 |  | 100% | 87.40% | 100% | 87.48% | 100% | 85.65% | far less cytotoxic than Amphotericin B | 168 µM | 258 to 260 °C |  |  |  | 
C[C@@H]1[C@H](O)[C@@H](C)/C=C/C=C/C=C/C=C/C=C/C=C/C=C/[C@H](O[C@@H]2O[C@H](C)[C@@H](O)[C@H](N)[C@@H]2O)C[C@@H]2O[C@](O)(C[C@@H](O)C[C@@H](O)[C@H](O)CC[C@@H](O)C[C@@H](O)CC(=O)O[C@H]1C)C[C@H](O)[C@H]2C(=O)O [Am. B., Amphotericin B, reference compound] |  |  |  |  |  |  |  |  |  | 100% | 88.05% |  |  |  | 1.18 µM |  | 52 ± 12.2 µM | 4.1 ± 0.4 µM | 3.09 ± 2 µM | 4.49 ± 0.3 µM
